Experimental data taken from US8101774B2, “Ester derivatives and medicinal use thereof” (Japan Tobacco Inc., priority 2004, dated 2012).

molecular target: T1, Microsomal triglyceride transfer protein (MTP) from human small intestine microsome (Homo sapiens, UniProt P55157); assay: Inhibition test of interliposomal triglyceride (TG) transfer activity by MTP; type: biochemical; settings: purified MTP from human small intestine microsome, 37° C., 1.5 hours
T1 construct: Human small intestine microsome was dialyzed against 10 mM phosphate buffer; tissue Tissue Transforming Technologies, Inc; host or cells: human small intestine microsome
T1 sequence (P55157 19-894): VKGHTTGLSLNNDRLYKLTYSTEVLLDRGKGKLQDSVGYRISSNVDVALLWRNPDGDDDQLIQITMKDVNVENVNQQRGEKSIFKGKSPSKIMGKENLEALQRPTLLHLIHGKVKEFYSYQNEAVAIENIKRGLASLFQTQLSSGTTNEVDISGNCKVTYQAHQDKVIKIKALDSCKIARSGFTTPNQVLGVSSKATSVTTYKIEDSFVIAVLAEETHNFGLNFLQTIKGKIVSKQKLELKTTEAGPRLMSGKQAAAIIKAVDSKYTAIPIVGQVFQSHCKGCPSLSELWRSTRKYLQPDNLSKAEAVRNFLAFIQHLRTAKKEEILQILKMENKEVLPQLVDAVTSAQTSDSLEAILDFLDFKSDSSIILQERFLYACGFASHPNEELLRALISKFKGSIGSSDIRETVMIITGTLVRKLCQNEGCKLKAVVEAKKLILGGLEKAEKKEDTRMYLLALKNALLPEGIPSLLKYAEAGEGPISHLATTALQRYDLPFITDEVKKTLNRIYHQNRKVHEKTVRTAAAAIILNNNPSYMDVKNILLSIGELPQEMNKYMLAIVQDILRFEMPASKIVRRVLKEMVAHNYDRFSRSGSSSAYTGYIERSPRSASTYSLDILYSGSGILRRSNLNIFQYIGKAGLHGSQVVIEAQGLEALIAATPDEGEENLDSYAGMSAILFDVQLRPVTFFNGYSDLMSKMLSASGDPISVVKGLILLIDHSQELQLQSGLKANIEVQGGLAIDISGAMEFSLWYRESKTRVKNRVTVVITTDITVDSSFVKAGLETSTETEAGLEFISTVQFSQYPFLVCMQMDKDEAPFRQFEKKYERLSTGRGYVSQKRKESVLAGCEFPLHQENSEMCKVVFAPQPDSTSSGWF
T1 sequence (P07237 18-508 partner): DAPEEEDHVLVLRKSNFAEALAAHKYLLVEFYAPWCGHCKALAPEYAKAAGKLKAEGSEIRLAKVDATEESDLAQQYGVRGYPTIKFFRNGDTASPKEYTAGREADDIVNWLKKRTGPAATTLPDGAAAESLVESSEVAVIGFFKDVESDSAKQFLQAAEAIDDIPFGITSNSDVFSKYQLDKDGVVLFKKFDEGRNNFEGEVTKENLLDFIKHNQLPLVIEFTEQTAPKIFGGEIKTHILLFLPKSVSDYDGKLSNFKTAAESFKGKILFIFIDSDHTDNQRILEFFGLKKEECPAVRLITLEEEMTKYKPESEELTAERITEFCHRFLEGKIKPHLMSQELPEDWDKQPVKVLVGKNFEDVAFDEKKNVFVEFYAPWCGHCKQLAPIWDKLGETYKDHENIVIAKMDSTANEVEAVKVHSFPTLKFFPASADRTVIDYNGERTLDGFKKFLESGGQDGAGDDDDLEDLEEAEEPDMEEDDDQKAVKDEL
Summary of the method: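 DEAE-purified human small intestine MTP (50 μL of 20 μg/mL) incubated 1.5 hours at 37° C with ^14C-triolein donor and unlabelled acceptor SUV liposomes in pH 7.4 Tris buffer with 0.5% BSA. Donor removed on DEAE cellulose; acceptor radioactivity counted, blank-corrected against DMSO control, giving percent inhibition and IC50.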

IC50, < 10 nM:
CN(C)C(=O)c1cc(CCCC(=O)Oc2ccc(C(=O)OCc3cccnc3)cc2)ccc1NC(=O)c1ccccc1-c1ccc(C(F)(F)F)cc1 [Compound 1-83, 4-[4-(3-dimethylcarbamoyl-4-{(4′-trifluoromethylbiphenyl-2-carbonyl)amino}phenyl)butyryloxy]benzoic acid pyridin-3-ylmethyl ester]
CN(C)C(=O)c1cc(CCCC(=O)Oc2ccc(C(=O)OCc3ccncc3)cc2)ccc1NC(=O)c1ccccc1-c1ccc(C(F)(F)F)cc1 [Compound 1-84, 4-[4-(3-dimethylcarbamoyl-4-{(4′-trifluoremethylbiphenyl-2-carbonyl)amino}phenyl)butyryloxy]benzoic acid pyridin-4-ylmethyl ester]
CN(C)C(=O)COC(=O)c1ccc(OC(=O)CCCc2ccc(NC(=O)c3ccccc3-c3ccc(C(F)(F)F)cc3)c(C(=O)N(C)C)c2)cc1 [Compound 1-85, 4-[4-(3-dimethylcarbamoyl-4-{(4′-trifluoromethylbiphenyl-2-carbonyl)amino}phenyl)butyryloxy]benzoic acid dimethylcarbamoylmethyl ester]
COC(=O)COC(=O)c1ccc(OC(=O)CCCc2ccc(NC(=O)c3ccccc3-c3ccc(C(F)(F)F)cc3)c(C(=O)N(C)C)c2)cc1 [Compound 1-86, 4-[4-(3-dimethylcarbamoyl-4-{(4′-trifluoromethylbiphenyl-2-carbonyl)amino}phenyl)butyryloxy]benzoic acid methoxycarbonylmethyl ester]
CN(C)C(=O)c1cc(CCCC(=O)Oc2ccc(C(=O)OCc3cccc(Cl)c3)cc2)ccc1NC(=O)c1ccccc1-c1ccc(C(F)(F)F)cc1 [Compound 1-87, 4-[4-(3-dimethylcarbamoyl-4-{(4′-trifluoromethylbiphenyl-2-carbonyl)amino}phenyl)butyryloxy]benzoic acid 3-chlorobenzyl ester]
CCC(=O)c1ccc(OC(=O)CCCc2ccc(NC(=O)c3ccccc3-c3ccc(C(F)(F)F)cc3)c(C(=O)N(C)C)c2)cc1 [Compound 1-88, 4-(3-dimethylcarbamoyl-4-{(4′-trifluoromethylbiphenyl-2-carbonyl)amino}phenyl)butyric acid 4-propionylphenyl ester]
CN(C)C(=O)c1cc(CCCC(=O)Oc2ccc(C(=O)OCCOCc3ccccc3)cc2)ccc1NC(=O)c1ccccc1-c1ccc(C(F)(F)F)cc1 [Compound 1-89, 4-[4-(3-dimethylcarbamoyl-4-{(4′-trifluoromethylbiphenyl-2-carbonyl)amino}phenyl)butyryloxy]benzoic acid 2-benzyloxyethyl ester]
CN(C)C(=O)c1cc(CCCC(=O)Oc2ccc(C(=O)OCCCOCc3ccccc3)cc2)ccc1NC(=O)c1ccccc1-c1ccc(C(F)(F)F)cc1 [Compound 1-90, 4-[4-(3-dimethylcarbamoyl-4-{(4′-trifluoromethylbiphenyl-2-carbonyl)amino}phenyl)butyryloxy]benzoic acid 3-benzyloxypropyl ester]
CN(C)C(=O)c1cc(CCCC(=O)Oc2ccc(C(=O)OCCN3CCCC3=O)cc2)ccc1NC(=O)c1ccccc1-c1ccc(C(F)(F)F)cc1 [Compound 1-91, 4-[4-(3-dimethylcarbamoyl-4-{(4′-trifluoromethylbiphenyl-2-carbonyl)amino}phenyl)butyryloxy]benzoic acid 2-(2-oxopyrrolidin-1-yl)ethyl ester]
CN(C)C(=O)c1cc(CCCC(=O)Oc2ccc(C(=O)OCCCO)cc2)ccc1NC(=O)c1ccccc1-c1ccc(C(F)(F)F)cc1 [Compound 1-92, 4-[4-(3-dimethylcarbamoyl-4-{(4′-trifluoromethylbiphenyl-2-carbonyl)amino}phenyl)butyryloxy]benzoic acid 3-hydroxypropyl ester]
CCCC(=O)c1ccc(OC(=O)CCCc2ccc(NC(=O)c3ccccc3-c3ccc(C(F)(F)F)cc3)c(C(=O)N(C)C)c2)cc1 [Compound 1-93, 4-(3-dimethylcarbamoyl-4-{(4′-trifluoromethylbiphenyl-2-carbonyl)amino}phenyl)butyric acid 4-butyrylphenyl ester]
Cc1ccc(C(=O)Nc2ccc(CCCC(=O)Oc3ccc(C(=O)OCc4cccnc4)cc3)cc2C(=O)N(C)C)c(-c2ccc(C(F)(F)F)cc2)n1 [Compound 1-94, 4-[4-(3-dimethylcarbamoyl-4-{[6-methyl-2-(4-trifluoromethylphenyl)pyridine-3-carbonyl]amino}phenyl)butyryloxy]benzoic acid pyridin-3-ylmethyl ester]
CN(C)C(=O)c1cc(CCCC(=O)Oc2ccc(-c3nnn(C)n3)cc2)ccc1NC(=O)c1ccccc1-c1ccc(C(F)(F)F)cc1 [Compound 1-95, 4-(3-dimethylcarbamoyl-4-{(4′-trifluoromethylbiphenyl-2-carbonyl)amino}phenyl)butyric acid 4-(2-methyl-2H-tetrazol-5-yl)phenyl ester]
COc1ccc(COC(=O)c2ccc(OC(=O)CCCc3ccc(NC(=O)c4ccccc4-c4ccc(C(F)(F)F)cc4)c(C(=O)N(C)C)c3)cc2)cc1 [Compound 1-96, 4-[4-(3-dimethylcarbamoyl-4-{(4′-trifluoromethylbiphenyl-2-carbonyl)amino}phenyl)butyryloxy]benzoic acid 4-methoxybenzyl ester]
COc1cccc(COC(=O)c2ccc(OC(=O)CCCc3ccc(NC(=O)c4ccccc4-c4ccc(C(F)(F)F)cc4)c(C(=O)N(C)C)c3)cc2)c1 [Compound 1-97, 4-[4-(3-dimethylcarbamoyl-4-{(4′-trifluoromethylbiphenyl-2-carbonyl)amino}phenyl)butyryloxy]benzoic acid 3-methoxybenzyl ester]
CN(C)C(=O)c1cc(CCCC(=O)Oc2ccc(C(=O)OCc3cccs3)cc2)ccc1NC(=O)c1ccccc1-c1ccc(C(F)(F)F)cc1 [Compound 1-98, 4-[4-(3-dimethylcarbamoyl-4-{(4′-trifluoromethylbiphenyl-2-carbonyl)amino}phenyl)butyryloxy]benzoic acid thiophen-2-ylmethyl ester]
CN(C)C(=O)c1cc(CCCC(=O)Oc2ccc(C(=O)OCc3ccsc3)cc2)ccc1NC(=O)c1ccccc1-c1ccc(C(F)(F)F)cc1 [Compound 1-99, 4-[4-(3-dimethylcarbamoyl-4-{(4′-trifluoromethylbiphenyl-2-carbonyl)amino}phenyl)butyryloxy]benzoic acid thiophen-3-ylmethyl ester]
Cc1cccc(COC(=O)c2ccc(OC(=O)CCCc3ccc(NC(=O)c4ccc(C)nc4-c4ccc(C(F)(F)F)cc4)c(C(=O)N(C)C)c3)cc2)n1 [Compound 1-100, 4-[4-(3-dimethylcarbamoyl-4-{[6-methyl-2-(4-trifluoromethylphenyl)pyridine-3-carbonyl]amino}phenyl)butyryloxy]benzoic acid 6-methylpyridin-2-ylmethyl ester]
Cc1cccc(COC(=O)c2ccc(OC(=O)CCCc3ccc(NC(=O)c4ccccc4-c4ccc(C(F)(F)F)cc4)c(C(=O)N(C)C)c3)cc2)n1 [Compound 1-101, 4-[4-(3-dimethylcarbamoyl-4-{(4′-trifluoromethylbiphenyl-2-carbonyl)amino}phenyl)butyryloxy]benzoic acid 6-methylpyridin-2-ylmethyl ester]
CC(C)OC(=O)COC(=O)c1ccc(OC(=O)CCCc2ccc(NC(=O)c3ccccc3-c3ccc(C(F)(F)F)cc3)c(C(=O)N(C)C)c2)cc1 [Compound 1-102]
CN(C)C(=O)c1cc(CCCC(=O)Oc2ccc(C(=O)OCc3ccc(C(=O)OC(C)(C)C)cc3)cc2)ccc1NC(=O)c1ccccc1-c1ccc(C(F)(F)F)cc1 [Compound 1-103, 4-[4-(3-dimethylcarbamoyl-4-{(4′-trifluoromethylbiphenyl-2-carbonyl)amino}phenyl)butyryloxy]benzoic acid 4-(t-butoxycarbonyl)benzyl ester]
CN(C)C(=O)c1cc(CCCC(=O)Oc2ccc(-c3nnn(CC(=O)OCc4ccccc4)n3)cc2)ccc1NC(=O)c1ccccc1-c1ccc(C(F)(F)F)cc1 [Compound 1-104, 4-(3-dimethylcarbamoyl-4-{(4′-trifluoromethylbiphenyl-2-carbonyl)amino}phenyl)butyric acid 4-(2-benzyloxycarbonylmethyl-2H-tetrazol-5-yl)phenyl ester]
CN(C)C(=O)Cn1nnc(-c2ccc(OC(=O)CCCc3ccc(NC(=O)c4ccccc4-c4ccc(C(F)(F)F)cc4)c(C(=O)N(C)C)c3)cc2)n1 [Compound 1-105, 4-(3-dimethylcarbamoyl-4-{(4′-trifluoromethylbiphenyl-2-carbonyl)amino}phenyl)butyric acid 4-(2-dimethylcarbamoylmethyl-2H-tetrazol-5-yl)phenyl ester]
CC(OC(=O)c1ccc(OC(=O)CCCc2ccc(NC(=O)c3ccccc3-c3ccc(C(F)(F)F)cc3)c(C(=O)N(C)C)c2)cc1)c1ccccc1 (stereo not shown) [Compound 1-106, 4-[4-(3-dimethylcarbamoyl-4-{(4′-trifluoromethylbiphenyl-2-carbonyl)amino}phenyl)butyryloxy]benzoic acid 1-phenylethyl ester]
CN(C)C(=O)c1cc(CCCC(=O)Oc2ccc(C(=O)OC3CCc4ccccc43)cc2)ccc1NC(=O)c1ccccc1-c1ccc(C(F)(F)F)cc1 (stereo not shown) [Compound 1-107, 4-[4-(3-dimethylcarbamoyl-4-{(4′-trifluoromethylbiphenyl-2-carbonyl)amino}phenyl)butyryloxy]benzoic acid indan-1-yl ester]
